Measured values reported in patent US20190015400A1, “Antifungal Compositions” (priority 2017, published 2019).
“Also recorded” adds a separate entry of the source.

What was measured:
Assay in all cases: MIC and checkerboard assay, azoles + compounds 1-5
[1] = tested on: C. glabrata ATCC 2001 (strain H); assay type: cell-based, Candida glabrata
Procedure: (§1) These compounds were serially diluted (two-fold dilutions) horizontally on the plate in 100 μL of RPMI medium. A diluted yeast culture (25 μL of a fungal stock with OD600 of 0.125 in 10 mL of RPMI medium, which achieves a final inoculum size of around 1-5×10^3 CFU/mL) was plated across the plate (100 μL per well), making a final volume of 200 μL total per well.
(§2) The appropriate range of concentrations for each compound was determined based on their corresponding MIC values against each fungal strain. The inoculum size for yeast and filamentous fungi were the same as in the MIC experiments described in section 2.2. The 96-well plates were incubated at 35° C. for 48 h for yeasts and 72 h for the Aspergillus strain before visual inspection for growth. […] The combinational effect of the two tested compounds were considered synergistic (abbreviated SYN) if FICI<0.5, additive (abbreviated ADD) if 0.5<FICI<4, and antagonistic if FICI>4 (TABLES 2-4).

[2] = tested on: C. albicans ATCC 10231 (strain B); assay type: cell-based, Candida albicans
Procedure: as §1, §2

[3] = tested on: C. albicans ATCC 64124 (strain F); assay type: cell-based, Candida albicans
Procedure: as §1, §2

SMILES	combinational effect (FICI interpretation) ([1]; in combination with POS)	combinational effect (FICI interpretation) ([1]; in combination with VOR)	combinational effect (FICI interpretation) ([2]; in combination with POS)	combinational effect (FICI interpretation) ([2]; in combination with VOR)	combinational effect (FICI interpretation) ([3]; in combination with POS)	combinational effect (FICI interpretation) ([3]; in combination with VOR)	combinational effect (FICI interpretation) ([2]; in combination with KTC)	combinational effect (FICI interpretation) ([3]; in combination with KTC)	MIC in combination ([3]; combination compound 2 + ITC, MIC of the labelled drug) [µg/mL]	fold reduction in MIC (combination vs alone) ([3]; combination compound 2 + ITC, reduction for the labelled drug) [fold]
O=C(CCCN1CCC(O)(c2ccc(Br)cc2)CC1)c1ccccc1 [Compound 1]	partial synergy	strong additive effect	partial synergy	partial synergy	synergy; also recorded: synergistic interactions	partial synergy	–	–	–	–
O=C(CCCN1CCC(O)(c2ccc(Br)cc2)CC1)c1ccc(Cl)cc1 [Compound 3]	–	–	partial synergy	partial synergy	synergy; also recorded: synergistic interactions	partial synergy; also recorded: synergistic interactions	partial synergy	partial synergy	–	–
O=C(CCCN1CCC(O)(c2ccc(Br)cc2)CC1)c1ccc(Br)cc1 [Compound 4]	synergistic; also recorded: strong synergy	–	–	–	synergistic interactions	Partial synergy	partial synergy	partial synergy	–	–
CCC(C)n1ncn(-c2ccc(N3CCN(c4ccc(OCC5COC(Cn6cncn6)(c6ccc(Cl)cc6Cl)O5)cc4)CC3)cc2)c1=O (stereo not shown) [ITC, itraconazole]	–	–	–	–	–	–	–	–	2	16
